Values quoted from earlier work, collected in patent US10561609B2, “Antiviral compositions” (The University of Liverpool, priority 2010, dated 2020).
Where a name gives a salt, the structure may show the parent alone.

Settings: according to M. Fardis and R. Oliyai; same value restated in g/L

SMILES: CC(C)OC(=O)OCOP(=O)(CO[C@H](C)Cn1cnc2c(N)ncnc21)OCOC(=O)OC(C)C [tenofovir disoproxil fumarate]
- water solubility: 13.4 mg/mL
